Reference: paper PMC4767141, “Discovery of Potent, Orally Bioavailable, Small-Molecule Inhibitors of WNT Signaling from a Cell-Based Pathway Screen” (Journal of Medicinal Chemistry, 2015)

How the values were obtained:
[1] = In vitro reactive metabolite assay; assay type: in vitro ADME; conditions: data not shown
[2] = Clint determination; assay type: in vitro ADME; conditions: rat, microsomes, pH 7.4, rat microsomes, read-out: Clint (μL/min/mg) Rat
[3] = molecular target: T1, MKK6 (Homo sapiens, UniProt P52564); experiment: Millipore kinase panel; assay type: biochemical; conditions: read-out: % Control
T1 construct: purchased Millipore KinaseProfiler (kinases); Cerep (receptors and ion channels)

[4] = molecular target: T2, LYN (Homo sapiens, UniProt P07948); experiment: Millipore kinase panel; assay type: biochemical; conditions: ATP at Km, read-out: % Control
T2 construct: purchased Millipore KinaseProfiler (kinases); Cerep (receptors and ion channels)

[5] = system: PI3 KINASE (P110A/P65A); experiment: Millipore kinase panel; assay type: biochemical; conditions: 1 μM, ATP at Km
Procedure: (§1) Supplementary Table S3. Activity of compound 44 tested 1 μM across a panel of 209 non-mutated kinases (Millipore Panel: data expressed as percentage control response versus each kinase tested at its respective Km for ATP). No inhibition was considered sufficient to warrant follow-up with IC50 determination.
(§2) % Inhibition of % Inhibition of […]
(§3) α1 (non-selective) (antagonist radioligand) 8 NTS1 (NT1) (h) (agonist radioligand) -8 α2 (non-selective) (antagonist radioligand) 0 δ2 (DOP) (h) (agonist radioligand) 22 β1 (h) (agonist radioligand) 5 κ (KOP) (agonist radioligand) 72 […]
(§4) AT1 (h) (antagonist radioligand) 8 NOP (ORL1) (h) (agonist radioligand) 3 BZD (central) (agonist radioligand) 18 TP (h) (TXA2/PGH2) (antagonist radioligand) NT B2 (h) (agonist radioligand) 0 5-HT1A (h) (agonist radioligand) 19 […]
(§5) CCK1 (CCKA) (h) (agonist radioligand) 2 5-HT2A (h) (antagonist radioligand) 1 D1 (h) (antagonist radioligand) 7 5-HT2B (h) (agonist radioligand) 6
(§6) D2S (h) (antagonist radioligand) 5 5-HT3 (h) (antagonist radioligand) 9 ETA (h) (agonist radioligand) -9 5-HT5a (h) (agonist radioligand) 1
(§7) GABA (non-selective) (agonist radioligand) 5 5-HT6 (h) (agonist radioligand) 3 GAL2 (h) (agonist radioligand) 2 5-HT7 (h) (agonist radioligand) 1
(§8) CXCR2 (IL-8B) (h) (agonist radioligand) -6 sst (non-selective) (agonist radioligand) 4 CCR1 (h) (agonist radioligand) -4 VPAC1 (VIP1) (h) (agonist radioligand) 0 H1 (h) (antagonist radioligand) 16 V1a (h) (agonist radioligand) -7
(§9) H2 (h) (antagonist radioligand) -2 Ca2+ channel (L, verapamil site) (phenylalkylamine) (antagonist radioligand) 7 MC4 (h) (agonist radioligand) 4 KV channel (antagonist radioligand) -13 MT1 (ML1A) (h) (agonist radioligand) 34 SKCa channel (antagonist radioligand) 3 M1 (h) (antagonist radioligand) 21 Na+ channel (site 2) (antagonist radioligand) 29 M2 (h) (antagonist radioligand) 38 Cl- channel (GABA-gated) (antagonist radioligand) 31 M3 (h) (antagonist radioligand) 46 norepinephrine transporter (h) (antagonist radioligand) 14 NK2 (h) (agonist radioligand) -17 dopamine transporter (h) (antagonist radioligand) 40 5-HT transporter (h) (antagonist radioligand) 70 […]
(§10) receptors, ion channels and enzymes (CEREP). Results are expressed as percent inhibition of control specific binding. […]
(§11) kinases (Millipore Panel: data expressed as percentage control response versus each kinase tested […]
(§12) at its respective Km for ATP).
(§13) Supplementary Figure S1. Dose-dependent reduction of endogenous cMYC mRNA measured by RT-PCR (n = 8) after treatment of 7dF3 cells with 74 at the stated concentration for 2 h […]

[6] = system: PI3 KINASE (P85A); experiment: Millipore kinase panel; assay type: biochemical; conditions: 1 μM, ATP at Km
Procedure: as §1, §2, §3, §4, §5, §6, §7, §8, §9, §10, §11, §12, §13

[7] = system: PI3 KINASE (P110A(H1047R)/P85A); experiment: Millipore kinase panel; assay type: biochemical; conditions: 1 μM, ATP at Km
Procedure: as §1, §2, §3, §4, §5, §6, §7, §8, §9, §10, §11, §12, §13

[8] = system: PI3 KINASE (P110A(E545K)/P85A); experiment: Millipore kinase panel; assay type: biochemical; conditions: 1 μM, ATP at Km
Procedure: as §1, §2, §3, §4, §5, §6, §7, §8, §9, §10, §11, §12, §13

[9] = system: PI3 KINASE (P110D/P85A); experiment: Millipore kinase panel; assay type: biochemical; conditions: 1 μM, ATP at Km
Procedure: as §1, §2, §3, §4, §5, §6, §7, §8, §9, §10, §11, §12, §13

[10] = system: PI3 KINASE (P65A); experiment: Millipore kinase panel; assay type: biochemical; conditions: 1 μM, ATP at Km
Procedure: as §1, §2, §3, §4, §5, §6, §7, §8, §9, §10, §11, §12, §13

[11] = system: PI3 KINASE (P110B/P85A); experiment: Millipore kinase panel; assay type: biochemical; conditions: 1 μM, ATP at Km
Procedure: as §1, §2, §3, §4, §5, §6, §7, §8, §9, §10, §11, §12, §13

[12] = system: PI3 KINASE (P110A(E542K)/P85A); experiment: Millipore kinase panel; assay type: biochemical; conditions: 1 μM, ATP at Km
Procedure: as §1, §2, §3, §4, §5, §6, §7, §8, §9, §10, §11, §12, §13

[13] = molecular target: T3, CAMKIIDELTA (Homo sapiens, UniProt Q13557); experiment: Millipore kinase panel; assay type: biochemical; conditions: read-out: % Control
T3 construct: purchased Millipore KinaseProfiler (kinases); Cerep (receptors and ion channels)

[14] = molecular target: T4, RET (V804L) (Homo sapiens, UniProt P07949, V804L); experiment: Millipore kinase panel; assay type: biochemical; conditions: read-out: % Control
T4 construct: purchased Millipore KinaseProfiler (kinases); Cerep (receptors and ion channels)

[15] = molecular target: hERG (Homo sapiens, UniProt Q12809); experiment: hERG inhibition
[16] = molecular target: T5, CK1DELTA (Homo sapiens, UniProt P48730); experiment: Millipore kinase panel; assay type: biochemical; conditions: read-out: % Control
T5 construct: purchased Millipore KinaseProfiler (kinases); Cerep (receptors and ion channels)

[17] = system: BZD (central); experiment: CEREP binding panel; conditions: 10 μM, agonist radioligand
[18] = molecular target: CYP450 1A2 (Homo sapiens, UniProt P05177); experiment: CYP450 inhibition
[19] = molecular target: T6, CDK5/P35 (Homo sapiens, UniProt Q00535); experiment: Millipore kinase panel; assay type: biochemical; conditions: read-out: % Control
T6 construct: purchased Millipore KinaseProfiler (kinases); Cerep (receptors and ion channels)

[20] = molecular target: T7, CAMKIIGAMMA (Homo sapiens, UniProt Q13555); experiment: Millipore kinase panel; assay type: biochemical; conditions: read-out: % Control
T7 construct: purchased Millipore KinaseProfiler (kinases); Cerep (receptors and ion channels)

[21] = molecular target: T8, SRC(T341M) (Homo sapiens, UniProt P12931, T341M); experiment: Millipore kinase panel; assay type: biochemical; conditions: read-out: % Control
T8 construct: purchased Millipore KinaseProfiler (kinases); Cerep (receptors and ion channels)

[22] = molecular target: T9, PKBBETA (Homo sapiens, UniProt P31751); experiment: Millipore kinase panel; assay type: biochemical; conditions: read-out: % Control
T9 construct: purchased Millipore KinaseProfiler (kinases); Cerep (receptors and ion channels)

[23] = molecular target: T10, PI3K GAMMA (Homo sapiens, UniProt P48736); experiment: Millipore kinase panel; assay type: biochemical; conditions: read-out: % Control
T10 construct: purchased Millipore KinaseProfiler (kinases); Cerep (receptors and ion channels)

[24] = molecular target: T11, CK1GAMMA3 (Homo sapiens, UniProt Q9Y6M4); experiment: Millipore kinase panel; assay type: biochemical; conditions: read-out: % Control
T11 construct: purchased Millipore KinaseProfiler (kinases); Cerep (receptors and ion channels)

[25] = molecular target: T12, PKCBETAI (Homo sapiens, UniProt P05771); experiment: Millipore kinase panel; assay type: biochemical; conditions: read-out: % Control
T12 construct: purchased Millipore KinaseProfiler (kinases); Cerep (receptors and ion channels)

[26] = molecular target: T13, PI3 KINASE (P110B/P85B) (Mus musculus, UniProt Q8BTI9); experiment: Millipore kinase panel; assay type: biochemical; conditions: read-out: % Control
T13 construct: purchased Millipore KinaseProfiler (kinases); Cerep (receptors and ion channels)
T13 sequence (Q8BTI9 whole entry): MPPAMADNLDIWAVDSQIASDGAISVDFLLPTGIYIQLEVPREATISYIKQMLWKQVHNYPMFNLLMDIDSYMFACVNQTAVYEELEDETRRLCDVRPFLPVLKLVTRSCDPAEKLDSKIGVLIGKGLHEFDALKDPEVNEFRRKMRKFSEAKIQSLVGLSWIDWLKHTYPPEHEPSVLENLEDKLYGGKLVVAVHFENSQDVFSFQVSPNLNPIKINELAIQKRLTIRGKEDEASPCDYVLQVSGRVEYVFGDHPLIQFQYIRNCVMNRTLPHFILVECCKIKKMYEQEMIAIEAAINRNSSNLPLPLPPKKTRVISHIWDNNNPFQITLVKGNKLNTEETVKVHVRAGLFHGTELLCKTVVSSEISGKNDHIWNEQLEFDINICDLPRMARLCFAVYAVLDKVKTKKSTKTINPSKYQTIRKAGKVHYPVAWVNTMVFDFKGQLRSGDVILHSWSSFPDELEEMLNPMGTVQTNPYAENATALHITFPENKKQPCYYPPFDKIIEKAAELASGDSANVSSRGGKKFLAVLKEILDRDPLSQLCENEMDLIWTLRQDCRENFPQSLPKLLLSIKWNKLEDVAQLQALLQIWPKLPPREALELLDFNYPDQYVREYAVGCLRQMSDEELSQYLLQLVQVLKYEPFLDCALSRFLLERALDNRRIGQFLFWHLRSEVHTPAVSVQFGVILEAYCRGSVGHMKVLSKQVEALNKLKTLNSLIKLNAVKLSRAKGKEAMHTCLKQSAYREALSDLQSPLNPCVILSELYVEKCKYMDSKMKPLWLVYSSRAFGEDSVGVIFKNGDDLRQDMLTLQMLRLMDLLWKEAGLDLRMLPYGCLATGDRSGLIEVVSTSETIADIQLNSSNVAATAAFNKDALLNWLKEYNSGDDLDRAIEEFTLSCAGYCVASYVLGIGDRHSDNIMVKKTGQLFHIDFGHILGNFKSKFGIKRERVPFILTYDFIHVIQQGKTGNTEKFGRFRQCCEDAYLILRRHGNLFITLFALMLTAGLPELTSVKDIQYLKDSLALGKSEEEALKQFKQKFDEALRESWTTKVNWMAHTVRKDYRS
T13 sequence (O08908 whole entry partner): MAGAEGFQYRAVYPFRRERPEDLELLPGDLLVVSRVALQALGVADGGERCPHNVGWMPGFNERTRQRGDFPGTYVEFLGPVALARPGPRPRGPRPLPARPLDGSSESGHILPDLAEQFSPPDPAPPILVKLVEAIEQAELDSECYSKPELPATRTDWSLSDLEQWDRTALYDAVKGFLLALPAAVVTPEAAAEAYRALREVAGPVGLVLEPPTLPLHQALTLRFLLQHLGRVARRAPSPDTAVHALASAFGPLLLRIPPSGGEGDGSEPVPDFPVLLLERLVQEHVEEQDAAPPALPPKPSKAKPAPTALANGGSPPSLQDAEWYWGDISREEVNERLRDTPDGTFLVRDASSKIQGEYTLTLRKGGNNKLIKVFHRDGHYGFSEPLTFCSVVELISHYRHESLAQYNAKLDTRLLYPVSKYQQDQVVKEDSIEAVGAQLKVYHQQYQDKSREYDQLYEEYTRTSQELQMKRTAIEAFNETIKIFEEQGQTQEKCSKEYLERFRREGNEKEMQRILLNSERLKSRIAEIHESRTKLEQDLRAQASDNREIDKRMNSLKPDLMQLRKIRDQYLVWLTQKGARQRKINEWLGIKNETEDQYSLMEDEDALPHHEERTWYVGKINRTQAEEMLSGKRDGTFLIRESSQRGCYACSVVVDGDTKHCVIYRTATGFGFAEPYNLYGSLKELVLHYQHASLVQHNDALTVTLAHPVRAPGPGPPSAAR

T1 sequence (P52564 whole entry): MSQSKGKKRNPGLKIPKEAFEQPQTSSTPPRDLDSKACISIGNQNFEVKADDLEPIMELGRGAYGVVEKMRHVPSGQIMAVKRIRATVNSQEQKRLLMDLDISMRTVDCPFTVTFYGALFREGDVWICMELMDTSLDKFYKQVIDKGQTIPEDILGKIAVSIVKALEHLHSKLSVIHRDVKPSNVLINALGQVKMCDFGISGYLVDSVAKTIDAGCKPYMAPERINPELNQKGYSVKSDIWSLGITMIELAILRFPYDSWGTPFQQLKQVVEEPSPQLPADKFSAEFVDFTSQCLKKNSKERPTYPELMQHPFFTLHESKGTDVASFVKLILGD
T5 sequence (P48730 whole entry): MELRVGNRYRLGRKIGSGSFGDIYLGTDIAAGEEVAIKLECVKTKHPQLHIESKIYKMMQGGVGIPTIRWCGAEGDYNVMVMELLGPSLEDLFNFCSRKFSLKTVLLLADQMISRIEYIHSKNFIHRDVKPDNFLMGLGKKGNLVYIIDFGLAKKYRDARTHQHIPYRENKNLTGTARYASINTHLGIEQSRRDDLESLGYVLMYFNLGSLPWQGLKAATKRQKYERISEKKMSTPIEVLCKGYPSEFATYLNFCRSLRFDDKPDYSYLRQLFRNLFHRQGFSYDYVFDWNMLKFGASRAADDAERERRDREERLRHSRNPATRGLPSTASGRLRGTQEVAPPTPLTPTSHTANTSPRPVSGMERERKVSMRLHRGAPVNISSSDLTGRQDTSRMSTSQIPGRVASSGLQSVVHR
T4 sequence (P07949 29-1114 V804L): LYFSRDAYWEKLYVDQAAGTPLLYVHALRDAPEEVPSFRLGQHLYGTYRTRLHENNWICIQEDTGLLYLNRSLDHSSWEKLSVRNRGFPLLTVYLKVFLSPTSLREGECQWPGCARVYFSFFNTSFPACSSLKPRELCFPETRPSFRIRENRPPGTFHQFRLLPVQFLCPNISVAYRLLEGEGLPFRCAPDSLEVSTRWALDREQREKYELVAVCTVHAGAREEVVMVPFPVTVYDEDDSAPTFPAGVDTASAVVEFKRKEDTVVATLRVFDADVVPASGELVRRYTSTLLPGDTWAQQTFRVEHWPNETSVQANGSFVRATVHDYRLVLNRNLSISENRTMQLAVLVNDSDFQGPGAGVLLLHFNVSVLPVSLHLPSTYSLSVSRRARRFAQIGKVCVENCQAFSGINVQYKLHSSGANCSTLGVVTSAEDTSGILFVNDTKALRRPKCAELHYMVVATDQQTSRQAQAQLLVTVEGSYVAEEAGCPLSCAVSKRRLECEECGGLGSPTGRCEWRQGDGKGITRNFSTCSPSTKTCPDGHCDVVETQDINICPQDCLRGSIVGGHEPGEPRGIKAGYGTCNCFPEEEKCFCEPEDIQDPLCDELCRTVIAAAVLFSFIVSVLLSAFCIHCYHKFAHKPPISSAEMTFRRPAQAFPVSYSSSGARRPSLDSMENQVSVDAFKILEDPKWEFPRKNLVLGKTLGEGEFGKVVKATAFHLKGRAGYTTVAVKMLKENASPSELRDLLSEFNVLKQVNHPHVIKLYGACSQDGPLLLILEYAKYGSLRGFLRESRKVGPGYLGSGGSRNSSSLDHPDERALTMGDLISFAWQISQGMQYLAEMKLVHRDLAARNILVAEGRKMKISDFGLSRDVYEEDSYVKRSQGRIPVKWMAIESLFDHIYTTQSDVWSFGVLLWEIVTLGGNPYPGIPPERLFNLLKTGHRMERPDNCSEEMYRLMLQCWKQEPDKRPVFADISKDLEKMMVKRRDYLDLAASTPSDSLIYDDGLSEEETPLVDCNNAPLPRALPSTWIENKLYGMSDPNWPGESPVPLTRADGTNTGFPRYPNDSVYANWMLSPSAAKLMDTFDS
Sequence of CYP450 1A2 (P05177 whole entry): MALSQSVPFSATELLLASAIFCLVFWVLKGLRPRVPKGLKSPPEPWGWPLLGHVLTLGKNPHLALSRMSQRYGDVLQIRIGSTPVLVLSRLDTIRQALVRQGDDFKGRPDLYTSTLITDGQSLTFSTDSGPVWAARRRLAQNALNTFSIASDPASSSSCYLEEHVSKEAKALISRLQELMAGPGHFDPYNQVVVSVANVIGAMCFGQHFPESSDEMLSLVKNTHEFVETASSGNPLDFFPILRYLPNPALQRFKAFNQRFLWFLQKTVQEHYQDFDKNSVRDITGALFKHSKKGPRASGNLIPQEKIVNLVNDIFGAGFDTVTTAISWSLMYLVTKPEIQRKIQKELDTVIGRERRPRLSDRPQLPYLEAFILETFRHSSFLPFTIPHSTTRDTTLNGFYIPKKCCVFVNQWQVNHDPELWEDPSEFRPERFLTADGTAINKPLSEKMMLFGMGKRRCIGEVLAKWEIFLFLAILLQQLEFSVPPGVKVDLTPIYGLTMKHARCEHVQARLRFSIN
T6 sequence (Q00535 whole entry): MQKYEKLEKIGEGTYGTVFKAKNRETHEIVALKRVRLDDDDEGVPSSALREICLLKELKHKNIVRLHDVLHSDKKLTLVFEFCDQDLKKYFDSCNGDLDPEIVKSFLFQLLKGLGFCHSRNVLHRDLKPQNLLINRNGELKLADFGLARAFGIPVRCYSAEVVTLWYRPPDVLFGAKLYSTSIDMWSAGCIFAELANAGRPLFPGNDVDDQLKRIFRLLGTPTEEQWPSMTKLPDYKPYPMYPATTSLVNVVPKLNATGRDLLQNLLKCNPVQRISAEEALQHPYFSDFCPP
T6 sequence (Q15078 whole entry partner): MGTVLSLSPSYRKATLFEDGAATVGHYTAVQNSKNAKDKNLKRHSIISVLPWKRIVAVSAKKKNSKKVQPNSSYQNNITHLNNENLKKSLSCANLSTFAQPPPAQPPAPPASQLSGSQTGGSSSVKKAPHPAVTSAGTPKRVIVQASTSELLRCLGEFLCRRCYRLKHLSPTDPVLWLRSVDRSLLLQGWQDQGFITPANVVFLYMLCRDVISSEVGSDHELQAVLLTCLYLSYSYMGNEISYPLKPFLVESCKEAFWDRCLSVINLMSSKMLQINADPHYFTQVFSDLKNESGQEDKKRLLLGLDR

O=C1NCCC12CCN(c1c(Cl)cncc1-c1ccc(N3CCOCC3)cc1)CC2 [Compound 44, 8-(3-Chloro-5-(4-morpholin-4-ylphenyl)pyridin-4-yl)-2,8-diazaspiro[4.5]decan-1-one]
glutathione adduct in an in vitro reactive metabolite assay [1]: generated a glutathione adduct | microsomal CLint at 1 μM [2]: 41 µL/min/mg | remaining activity at 1 µM [3]: 48% | remaining activity at 1 µM [4]: 31%

Cn1cc(-c2ccc(-c3cncc(Cl)c3N3CCC4(CCNC4=O)CC3)cc2)cn1 [Compound 74, 8-(3-Chloro-5-(4-(1-methyl-1H-pyrazol-4-yl)phenyl)pyridin-4-yl)-2,8-diazaspiro[4.5]decan-1-one]
% Control [5]: 0% | % Control [6]: -1% | % Control [7]: 2% | % Control [8]: -1% | % Control [9]: 0% | % Control [10]: 0% | % Control [11]: -1% | % Control [12]: 0% | remaining activity at 1 µM [13]: 4% | remaining activity at 1 µM [14]: -8% | IC50 [15]: > 10 µM | remaining activity at 1 µM [16]: 5% | % Inhibition of Control Specific Binding [17]: 18% | IC50 [18]: > 20 µM | remaining activity at 1 µM [19]: -16% | remaining activity at 1 µM [20]: 1% | remaining activity at 1 µM [21]: -6% | remaining activity at 1 µM [22]: -13% | remaining activity at 1 µM [23]: 2% | remaining activity at 1 µM [24]: 1% | remaining activity at 1 µM [25]: -23% | remaining activity at 1 µM [26]: -1%
